Measured values published in patent US8546451B2 (priority 2005, dated 2013).
Values joined by “and” are separate entries in the source; they are usually repeats but may differ in a detail not shown here. Identical values can stand only once.

Columns and labels:
[1] = biological target: ER-β ligand binding domain (LBD) (Homo sapiens (Human), UniProt Q92731); assay: ER-β competitive radioligand binding assay with [3H]E2; conditions: read-out: ER-β Ki
Procedure: Following incubation, plates were harvested with GF/B filters on the Unifilter-96 Harvester (PerkinElmer) and washed three times with ice-cold buffer B (50 mM Tris, pH 7.2). The filter plates were dried at room temperature, then 35 μl Microscint-O cocktail was added to each well and the filter plates were sealed with TopSeal-A. Radioactivity was counted in a TopCount® NXT Microplate Scintillation Counter using the settings for ^3H in Microscint cocktail (PerkinElmer).
E2 (determined by incubating with 10^−6 M unlabeled E2) and expressing it as a percentage of the specific binding in the absence of test compound.

[2] = biological target: androgen receptor (AR) (Rattus norvegicus (Rat), UniProt P15207); assay: Cross-reactivity transcriptional activation assay, AR; assay type: cell-based; conditions: agonist and antagonist modes
androgen receptor (AR), sequence (P15207 whole entry S389L, canonical isoform): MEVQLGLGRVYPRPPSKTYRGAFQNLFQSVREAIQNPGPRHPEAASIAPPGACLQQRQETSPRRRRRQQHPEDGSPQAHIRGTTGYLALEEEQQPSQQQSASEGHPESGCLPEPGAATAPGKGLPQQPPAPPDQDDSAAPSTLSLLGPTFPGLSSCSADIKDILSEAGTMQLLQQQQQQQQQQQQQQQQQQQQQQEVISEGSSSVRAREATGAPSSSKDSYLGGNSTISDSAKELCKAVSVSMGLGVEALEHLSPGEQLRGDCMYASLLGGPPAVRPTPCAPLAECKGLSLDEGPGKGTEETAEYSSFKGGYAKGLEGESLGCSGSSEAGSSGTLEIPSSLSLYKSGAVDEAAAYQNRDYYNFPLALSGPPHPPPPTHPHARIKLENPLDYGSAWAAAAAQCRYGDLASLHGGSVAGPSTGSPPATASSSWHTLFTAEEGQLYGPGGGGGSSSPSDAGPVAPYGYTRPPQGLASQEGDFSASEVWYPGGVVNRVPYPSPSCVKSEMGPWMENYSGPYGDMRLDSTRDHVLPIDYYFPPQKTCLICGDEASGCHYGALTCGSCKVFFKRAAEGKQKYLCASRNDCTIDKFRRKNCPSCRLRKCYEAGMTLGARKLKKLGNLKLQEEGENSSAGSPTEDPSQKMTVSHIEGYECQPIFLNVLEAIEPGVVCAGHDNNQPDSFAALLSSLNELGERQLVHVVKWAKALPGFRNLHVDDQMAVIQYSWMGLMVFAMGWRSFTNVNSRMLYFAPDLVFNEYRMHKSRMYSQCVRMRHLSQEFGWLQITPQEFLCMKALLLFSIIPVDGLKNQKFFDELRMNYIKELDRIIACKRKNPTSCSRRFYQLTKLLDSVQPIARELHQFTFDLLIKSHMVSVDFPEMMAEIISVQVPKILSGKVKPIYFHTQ
From the text: Compound IV was screened for cross-reactivity against rat isoforms of glucocorticoid receptor (GR), mineralocorticoids receptor (MR), progesterone receptor (PR), androgen receptor (AR) and human isoforms of farnesoid X receptor (FXR), liver X receptor (LXR), peroxisome proliferator-activated receptors (PPAR-α and PPAR-γ), and retinoid X receptor (RXR-α) in both agonist and antagonist modes in transcriptional activation assays.

[3] = system: LH, FSH, testosterone and androgen-dependent organ weights; assay: Suppression of LH and testosterone hormone levels in intact and ORX rats; assay type: in vivo, Sprague-Dawley rats; conditions: for Testosterone levels: LLOQ 0.08 ng/mL
[4] = system: circulating androgen (primarily testosterone and dihydrotestosterone); assay: Suppression and recovery of androgen levels in intact male monkeys; assay type: in vivo, Cynomolgus monkeys; set-up: circulating androgen levels: unit not given here
Procedure: The effect of Compound IV on suppression and recovery of testosterone levels in intact male monkeys was evaluated in conjunction with an oral pharmacokinetic study. Three treatment naïve male Cynomolgus monkeys (2 to 3 years old) were administered Compound IV at 30 mg/kg daily by oral gavage for 7 consecutive days. Blood samples were collected and divided into serum and plasma for testosterone and Compound IV quantitative measurements, respectively.

[5] = system: morphine dependent rat model; assay: Hot flashes in morphine dependent rat model (tail skin temperature); assay type: in vivo; conditions: morphine withdrawal model
Procedure: FIG. 13 depicts effect of Compound IV on attenuation of hot flashes in morphine withdrawal model with 5 mg/kg, 10 mg/kg, 15 mg/kg and 30 mg/kg dosages. N=7 animals per group. 17β-E2 was used at 5 mg/kg in 100% DMSO. (See Example 14.)
In addition to the similarities to the human condition, this experimental animal model has a short turn around time which makes it a useful high throughput screening tool for identifying compounds that can alleviate vasomotor symptoms using the tail skin temperature (TST). TST probes TA-40 (Data Sciences International, MN) were taped to the base of the tails and baseline temperatures were obtained for 15 minutes. After 15 minutes the animals were treated with naloxone (1 mg/kg, SQ) to reverse the effects of the morphine. Tail skin temperature (TST) was measured for one hour post-naloxone treatment with a sampling frequency of 5 secs throughout the course of the experiment. Following the data acquisition, the moving average of the temperature recorded every 60 seconds for each animal was calculated and further analyzed. Baseline temperature was computed as the average temperature acquired over the 15 minutes preceding naloxone administration. The area under the curve (AUC) was calculated by subtracting all the values post-naloxone administration from the baseline using a linear trapezoid method.

[6] = Oral pharmacokinetics in dogs; assay type: in vivo
Procedure: (§1) Formulations using polyethylene glycol 300 (PEG300) generally produced higher exposures than microemulsions prepared in Tween 80 diluted in deionized water. […] Importantly, in dogs the exposure in the male 30 mg/kg PEG300 oral dose group exceeded the exposure necessary to produce the maximal effect on prostate reduction in the rat model of LH suppression.

[7] = Preliminary oral pharmacokinetics in monkeys; assay type: in vivo
Procedure: as §1

[8] = system: CYP2B6; assay: CYP450 induction in vitro, CYP2B6; assay type: in vitro ADME
[9] = system: CYP3A4/5; assay: CYP450 inhibition in vitro, CYP3A4/5; assay type: in vitro ADME; conditions: at concentrations <30 μM
[10] = Neuropharmacological and pulmonary safety pharmacology; conditions: in vivo
[11] = system: human peripheral blood lymphocytes; assay: Chromosomal aberrations in human peripheral blood lymphocytes in vitro; assay type: cell-based; conditions: concentrations up to 200 μM
[12] = system: human platelets; assay: In vitro human platelet aggregation assay (thrombin-induced); conditions: platelet rich plasma preincubated 30 seconds; thrombin 0.3 units
[13] = Intact, 0.3 mg/kg per day s.c., 14 days
[14] = Intact, 1 mg/kg per day s.c., 14 days
[15] = Intact, 3 mg/kg per day s.c., 14 days
[16] = Intact, 10 mg/kg per day s.c., 14 days
[17] = Intact, 30 mg/kg per day s.c., 14 days
[18] = ORX, 0.3 mg/kg per day s.c., 14 days
[19] = ORX, 1 mg/kg per day s.c., 14 days
[20] = ORX, 3 mg/kg per day s.c., 14 days
[21] = ORX, 10 mg/kg per day s.c., 14 days
[22] = ORX, 30 mg/kg per day s.c., 14 days

ER-β ligand binding domain (LBD), sequence (Q92731 264-498, species assumed): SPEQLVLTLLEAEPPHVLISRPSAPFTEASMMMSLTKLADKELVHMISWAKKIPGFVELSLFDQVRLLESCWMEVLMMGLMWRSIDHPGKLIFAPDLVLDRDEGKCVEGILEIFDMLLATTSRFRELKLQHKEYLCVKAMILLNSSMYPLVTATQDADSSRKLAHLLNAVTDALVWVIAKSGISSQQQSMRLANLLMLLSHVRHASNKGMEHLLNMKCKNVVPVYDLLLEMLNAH

With O=C(c1ccc(O)c(F)c1)N(c1ccc(O)cc1)c1ccc(F)cc1 [Compound IV, 3-fluoro-N-(4-fluorophenyl)-4-hydroxy-N-(4-hydroxyphenyl)benzamide] the Ki [1] was 15.2 ± 4.1 nM, the “agonist or antagonist activity” value [2] was “did not display any agonist or antagonist activity” and the FSH [3, 13] was 17.3±6.4 ng/mL and 17.3^b ng/mL. For the same compound, the LH [3, 13] was 0.863±0.384 ng/mL and 0.863^b ng/mL, the “Levator Ani Muscle weight” value [3, 13] was 86.9±10.0 % of Intact and 86.9^a,b % of Intact and the Prostate weight [3, 13] was 84.0±19.2 % of Intact and 84.0^b % of Intact. The “Seminal Vesicles weight” value [3, 13] was 76.2±7.8 % of Intact and 76.2^a,b % of Intact, the Testosterone levels [3, 13] was 2.6 ± 1.7 ng/mL and the FSH [3, 14] was 15.7±7.3 ng/mL and 15.7^b ng/mL. The LH [3, 14] was 0.704±0.530 ng/mL and 0.704^b ng/mL, the “Levator Ani Muscle weight” value [3, 14] was 82.1±12.1 % of Intact and 82.1^a,b % of Intact and the Prostate weight [3, 14] was 75.2±20.7 % of Intact and 75.2^b % of Intact. For the same compound, the “Seminal Vesicles weight” value [3, 14] was 66.3±27.2 % of Intact and 66.3^a,b % of Intact, the Testosterone levels [3, 14] was 1.6 ± 1.0 ng/mL and the FSH [3, 15] was 18.4±7.7 ng/mL and 18.4^b ng/mL. The LH [3, 15] was 0.395±0.302 ng/mL and 0.395^a,b ng/mL, the “Levator Ani Muscle weight” value [3, 15] was 65.2±4.4 % of Intact and 65.2^a % of Intact and the Prostate weight [3, 15] was 68.2±8.1 % of Intact and 68.2^a,b % of Intact. For the same compound, the “Seminal Vesicles weight” value [3, 15] was 51.8±28.5 % of Intact and 51.8^a,b % of Intact, the Testosterone levels [3, 15] was 0.7 ± 0.4 ng/mL and the FSH [3, 16] was 9.2±4.0 ng/mL and 9.25^a,b ng/mL. The LH [3, 16] was 0.226±0.165 ng/mL and 0.226^a,b ng/mL, the “Levator Ani Muscle weight” value [3, 16] was 57.8±11.2 % of Intact and 57.8^a % of Intact and the Prostate weight [3, 16] was 45.1±20.0 % of Intact and 45.1^a,b % of Intact. The “Seminal Vesicles weight” value [3, 16] was 19.1±7.0 % of Intact and 19.1^a % of Intact, the Testosterone levels [3, 16] was “BLOQ” and the FSH [3, 17] was 6.3±1.8 ng/mL and 6.25^a,b ng/mL. The LH [3, 17] was 0.236±0.176 ng/mL and 0.236^a,b ng/mL, the “Levator Ani Muscle weight” value [3, 17] was 58.1±4.7 % of Intact and 58.1^a % of Intact and the Prostate weight [3, 17] was 43.6±8.8 % of Intact and 43.6^a,b % of Intact. For the same compound, the “Seminal Vesicles weight” value [3, 17] was 17.9±3.3 % of Intact and 17.9^a % of Intact, the Testosterone levels [3, 17] was “BLOQ” and the FSH [3, 18] was 115±17 ng/mL and 116^a ng/mL. The LH [3, 18] was 15.4±2.9 ng/mL and 15.4^a ng/mL, the “Levator Ani Muscle weight” value [3, 18] was 54.5±6.6 % of Intact and 54.5^a % of Intact and the Prostate weight [3, 18] was 19.0±4.2 % of Intact and 19.0^a,b % of Intact. For the same compound, the “Seminal Vesicles weight” value [3, 18] was 12.2±1.3 % of Intact and 12.2^a % of Intact, the FSH [3, 19] was 114±22 ng/mL and 114^a ng/mL and the LH [3, 19] was 13.5±2.2 ng/mL and 13.5^a ng/mL. For the same compound, the “Levator Ani Muscle weight” value [3, 19] was 49.6±7.0 % of Intact and 49.6^a % of Intact, the Prostate weight [3, 19] was 17.4±3.4 % of Intact and 17.4^a % of Intact and the “Seminal Vesicles weight” value [3, 19] was 16.6±5.4 % of Intact and 16.6^a % of Intact. The FSH [3, 20] was 65.2±31.9 ng/mL and 65.2^a ng/mL, the LH [3, 20] was 6.5 ± 5.6 ng/mL and 6.5 ng/mL and the “Levator Ani Muscle weight” value [3, 20] was 53.6±10.0 % of Intact and 53.6^a % of Intact. For the same compound, the Prostate weight [3, 20] was 19.6±6.7 % of Intact and 19.6^a % of Intact, the “Seminal Vesicles weight” value [3, 20] was 16.5±4.8 % of Intact and 16.5^a % of Intact and the FSH [3, 21] was 27.6±8.2 ng/mL and 27.6^b ng/mL. The LH [3, 21] was 0.425±0.135 ng/mL and 0.425^a,b ng/mL, the “Levator Ani Muscle weight” value [3, 21] was 51.1±4.9 % of Intact and 51.1^a % of Intact and the Prostate weight [3, 21] was 22.9±5.4 % of Intact and 22.9^a,b % of Intact. The “Seminal Vesicles weight” value [3, 21] was 13.3±1.9 % of Intact and 13.3^a % of Intact, the FSH [3, 22] was 15.1±4.1 ng/mL and 15.1^b ng/mL and the LH [3, 22] was 0.368±0.119 ng/mL and 0.368^a,b ng/mL. The “Levator Ani Muscle weight” value [3, 22] was 49.2±4.2 % of Intact and 49.2^a,b % of Intact, the Prostate weight [3, 22] was 20.6±2.1 % of Intact and 20.6^a,b % of Intact and the “Seminal Vesicles weight” value [3, 22] was 12.9±2.1 % of Intact and 12.9^a % of Intact. For the same compound, the Testosterone levels ([3]; ORX, all treated groups (0.3-30 mg/kg per day)) was “BLOQ”, the “doses that significantly suppressed LH levels” value ([3]; intact and ORX animals, vs respective controls) was at least 10 mg/kg per day and the “daily doses with statistically significant LH reductions” value ([3]; intact animals) was at least 3 mg/kg. The “doses with significant FSH reductions” value ([3]; intact animals) was at least 10 mg/kg/day, the “doses with significant testosterone reductions” value ([3]; intact animals) was at least 3 mg/kg per day and the “suppression of serum testosterone” value ([3]; intact male rats, 3, 10 and 300 mg/kg, after 24 h, 72 h and 168 h (FIG. 9)) was “Rapid and potent suppression”. For the same compound, the “decrease of circulating androgen levels compared to baseline” value ([4]; 30 mg/kg daily oral gavage for 7 days) was “up to 47%”, the circulating androgen levels ([4]; Day 2, 30 mg/kg daily oral gavage, mean±SEM) was 997±104 and the circulating androgen levels ([4]; Day 6, 30 mg/kg daily oral gavage, mean±SEM) was 852±136. For the same compound, the circulating androgen levels ([4]; after 18-day drug-free recovery period) was 1757.7±369.5, the “dose with the best results” value [5] was 10 mg and the “effect on hot flushes” value ([5]; 5, 10, 15 and 30 mg/kg (FIG. 13)) was “attenuated hot flushes”. The “absorption following oral dosing” value [6] was “rapidly absorbed”, the enterohepatic recirculation ([6]; second peak in the terminal phase of plasma concentration-time profiles) was “undergoes enterohepatic recirculation” and the “absorption following oral dosing” value [7] was “rapidly absorbed”. For the same compound, the oral bioavailability ([7]; preliminary) was “approximates or exceeds that in dogs”, the “induction of CYP2B6” value [8] was “does not induce” and the “inhibition of CYP3A4/5” value [9] was “does not inhibit”. The “neuropharmacological or pulmonary effects” value [10] was “No neuropharmacological or pulmonary effects were observed”, the “structural or numeric chromosomal aberrations” value [11] was “did not induce structural or numeric chromosomal aberrations” and the “effect on thrombin-induced platelet aggregation” value [12] was “decreased aggregation”.
